What all share (assay type): cell-based
The target of assay [1] is T1, BTK (Homo sapiens, UniProt Q06187).
T1 construct: BTK Degradative Activity of Exemplary Compounds of the Present Disclosure in a RAMOS Cell Line; host or cells: RAMOS
The experiment in a line: BTK degradative activity in a RAMOS cell line (Western blot). The following applies: 6 hours after administration, read-out: RAMOS BTK Degradation DC50. The method, boiled down: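 Ramos cells in RPMI with 10% FBS were treated with compound in DMSO at various concentrations for 6 h at 37 °C. BTK was measured by Western blot against GAPDH with infrared fluorescent detection and band quantification. DC50 is the concentration at which 50% of BTK is degraded.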

In assay [2] the test system is REC-1 cells. As to the kind of experiment: Growth inhibitory activity in BTK-dependent REC-1 cell line (CellTiter-Glo). The conditions noted are these: Homo sapiens, Rec1, 144 h, 6 days after administration, read-out: REC1 Cellular Grwoth Inhibition IC50. The procedure:
(§1) REC-1 (ATCC) and REC-1 BTK^C481S cells were plated in 96-well plates at 8,000 cells/well in 90 ul of RPMI growth medium containing 10% heat-inactivated FBS and 1× Penicillin Streptomycin, and then incubated at 37° C. overnight. The following day, the test compound was administered to the cells by using 10× compound stock solution prepared in growth medium at various concentrations. After administration of the compound, cells were then incubated at 37° C. for 6 days. Before CellTiter-Glo assay, the plates were equilibrated at room temperature for approximately 10 minutes. 100 ul of CellTiter-Glo® Reagent (Promega) was added to each well. The plates were then incubated at room temperature for 10 minutes and luminescence was recorded by EnSpire plate reader (PerkinElmer).
(§2) The GI50 values (i.e., the concentration of test compound at which 50% of cell growth are inhibited) were calculated. A designation of “A” corresponds to a […] value less than 20 nM. A designation of “B” corresponds to a […] value greater than or equal to 20 nM and less than 200 nM. A designation of “C” corresponds to a […] value greater than or equal to 200 nM.
In general terms: In ATP-based viability assays light output follows the ATP content of the culture.

Assay [3] has as its system REC-1 BTK^C481S cells. As to the kind of experiment: Growth inhibitory activity in REC-1 BTK^C481S cell line (CellTiter-Glo). The following applies: Homo sapiens, Rec1, 144 h, 6 days after administration, read-out: REC1 BTK^C481S Cellular Grwoth Inhibition IC50. How it is done:
The BTK gene in REC-1 cell line (ATCC) was edited by the CRISPR-Cas9 technology to create a C to S point mutation at residue 481 of BTK protein. For gene editing, first, gRNA complex was prepared with Alt-R CRISPR-Cas9 tracrRNA and crRNA BTK^C481S (5′-[…]-3′) (IDT-Integrated DNA Technologies), and then BTK^C481S ribonucleoprotein (RNP) complex was prepared with gRNA complex and Alt-R S.p. Cas9 Nuclease V3 (IDT-Integrated DNA Technologies). Next, 1×10^5 REC-1 cells were electroporated with BTK^C481S RNP complex, Alt-R Cas9 Electroporation Enhancer and BTKC481S Ultramer DNA Oligo (5′-[…] […]-3′) (IDT-Integrated DNA Technologies) using Neon Transfection System (Thermo Fisher) under the condition of 1400 V, 10 ms, 3 pulses. Cells were then plated in a 96-well plate for 10 days and selected with 10 nM Ibrutinib for 5 passages. C481S mutation of BTK was further validated by Sanger Sequencing using gDNA extracted from these cells.
as §1, §2

T1 sequence (Q06187 whole entry): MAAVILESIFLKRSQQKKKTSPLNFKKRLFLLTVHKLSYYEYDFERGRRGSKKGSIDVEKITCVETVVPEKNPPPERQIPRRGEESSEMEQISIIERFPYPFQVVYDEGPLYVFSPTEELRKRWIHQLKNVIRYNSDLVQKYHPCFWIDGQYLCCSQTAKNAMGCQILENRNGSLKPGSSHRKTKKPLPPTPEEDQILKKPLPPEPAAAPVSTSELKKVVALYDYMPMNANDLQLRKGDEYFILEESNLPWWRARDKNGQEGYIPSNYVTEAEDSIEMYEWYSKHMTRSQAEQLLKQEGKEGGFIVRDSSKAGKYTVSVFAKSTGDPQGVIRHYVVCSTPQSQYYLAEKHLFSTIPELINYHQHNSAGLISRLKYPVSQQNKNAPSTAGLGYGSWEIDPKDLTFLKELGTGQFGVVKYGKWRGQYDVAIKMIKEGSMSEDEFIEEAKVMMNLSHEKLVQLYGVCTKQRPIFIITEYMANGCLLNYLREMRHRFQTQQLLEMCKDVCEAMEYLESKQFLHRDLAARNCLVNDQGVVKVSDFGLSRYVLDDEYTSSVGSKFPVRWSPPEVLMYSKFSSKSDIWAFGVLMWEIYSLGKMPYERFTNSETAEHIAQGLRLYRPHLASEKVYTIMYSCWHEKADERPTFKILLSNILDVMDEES

As a reminder, the DC50 is the concentration at which degradation of the target reaches its halfway point. As usually defined, the IC50 is the midpoint of a concentration-inhibition curve. Turning to `COc1ccc(F)cc1C(=O)NCc1ccc(-c2nn(-c3ccc(N4CC[C@@H](CN5CCN(c6ccc7c(c6)CN([C@H]6CCC(=O)NC6=O)C7=O)CC5)C4)nc3)c3ncnc(N)c23)cc1` [Compound 94, N-(4-(4-amino-1-(6-((S)-3-((4-(2-((S)-2,6-dioxopiperidin-3-yl)-1-oxoisoindolin-5-yl)piperazin-1-yl)methyl)pyrrolidin-1-yl)pyridin-3-yl)-1H-pyrazolo[3,4-d]pyrimidin-3-yl)benzyl)-5-fluoro-2-methoxybenzamide], the 50% degradation concentration (DC50) in assay [1] is under 10 nM. The IC50 in assay [2] and in assay [3] was under 20 nM each time.

Regarding `COc1ccc(F)cc1C(=O)NCc1ccc(-c2nn(-c3ccc(N4CC[C@H](CN5CCN(c6ccc7c(c6)CN([C@H]6CCC(=O)NC6=O)C7=O)CC5)C4)c(F)c3)c3ncnc(N)c23)cc1` [Compound 95, N-(4-(4-amino-1-(4-((R)-3-((4-(2-((S)-2,6-dioxopiperidin-3-yl)-1-oxoisoindolin-5-yl)piperazin-1-yl)methyl)pyrrolidin-1-yl)-3-fluorophenyl)-1H-pyrazolo[3,4-d]pyrimidin-3-yl)benzyl)-5-fluoro-2-methoxybenzamide], the 50% degradation concentration (DC50) in assay [1] is under 10 nM. Besides, the IC50 in assay [2] and in assay [3] was under 20 nM in each case.

For the compound `COc1ccc(F)cc1C(=O)NCc1ccc(-c2nn(-c3ccc(N4CCC(CN5CCN(c6ccc7c(c6)CN([C@H]6CCC(=O)NC6=O)C7=O)CC5)C4)c(F)c3)c3ncnc(N)c23)cc1` (stereo partly drawn) [Compound 65, N-(4-(4-amino-1-(4-(3-((4-(2-((S)-2,6-dioxopiperidin-3-yl)-1-oxoisoindolin-5-yl)piperazin-1-yl)methyl)pyrrolidin-1-yl)-3-fluorophenyl)-1H-pyrazolo[3,4-d]pyrimidin-3-yl)benzyl)-5-fluoro-2-methoxybenzamide], the DC50 in assay [1] is under 10 nM. Besides, the IC50 in assay [2] and in assay [3] was under 20 nM each time.

As to `COc1ccc(F)cc1C(=O)NCc1ccc(-c2nn(-c3ccc(N4CCC(CN5CCN(c6ccc7c(c6)CN([C@H]6CCC(=O)NC6=O)C7=O)CC5)C4)nc3)c3ncnc(N)c23)cc1` (stereo partly drawn) [Compound 66, N-(4-(4-amino-1-(6-(3-((4-(2-((S)-2,6-dioxopiperidin-3-yl)-1-oxoisoindolin-5-yl)piperazin-1-yl)methyl)pyrrolidin-1-yl)pyridin-3-yl)-1H-pyrazolo[3,4-d]pyrimidin-3-yl)benzyl)-5-fluoro-2-methoxybenzamide], the DC50 in assay [1] was under 10 nM. The half-maximal inhibitory concentration (IC50) in assay [2] and in assay [3] was under 20 nM throughout.

As for `COc1ccc(F)cc1C(=O)NCc1ccc(-c2nn(-c3ccc(N4CC[C@H](CN5CCN(c6ccc7c(c6)CN([C@H]6CCC(=O)NC6=O)C7=O)CC5)C4)nc3)c3ncnc(N)c23)cc1` [Compound 93, N-(4-(4-amino-1-(6-((R)-3-((4-(2-((S)-2,6-dioxopiperidin-3-yl)-1-oxoisoindolin-5-yl)piperazin-1-yl)methyl)pyrrolidin-1-yl)pyridin-3-yl)-1H-pyrazolo[3,4-d]pyrimidin-3-yl)benzyl)-5-fluoro-2-methoxybenzamide], the 50% degradation concentration (DC50) in assay [1] was under 10 nM. In addition, the half-inhibitory concentration (IC50) in assay [2] and in assay [3] was under 20 nM in each case.

Consider `COc1ccc(F)cc1C(=O)NCc1ccc(-c2nn(-c3ccc(N4CC(CN5CCN(c6ccc7c(c6)CN([C@H]6CCC(=O)NC6=O)C7=O)CC5)C4)c(F)c3)c3ncnc(N)c23)cc1` [Compound 85, (S)—N-(4-(4-amino-1-(4-(3-((4-(2-(2,6-dioxopiperidin-3-yl)-1-oxoisoindolin-5-yl)piperazin-1-yl)methyl)azetidin-1-yl)-3-fluorophenyl)-1H-pyrazolo[3,4-d]pyrimidin-3-yl)benzyl)-5-fluoro-2-methoxybenzamide], for which the DC50 in assay [1] is under 10 nM. Also, the IC50 in assay [2] and in assay [3] was under 20 nM each time.

For `COc1ccc(F)cc1C(=O)NCc1ccc(-c2nn(-c3ccc(N4CCC(CN5CCN(c6ccc7c(c6)CN([C@H]6CCC(=O)NC6=O)C7=O)CC5)CC4)c(F)c3)c3ncnc(N)c23)cc1` [Compound 49, (S)—N-(4-(4-amino-1-(4-(4-((4-(2-(2,6-dioxopiperidin-3-yl)-1-oxoisoindolin-5-yl)piperazin-1-yl)methyl)piperidin-1-yl)-3-fluorophenyl)-1H-pyrazolo[3,4-d]pyrimidin-3-yl)benzyl)-5-fluoro-2-methoxybenzamide], the 50% degradation concentration (DC50) in assay [1] was under 10 nM. In addition, the IC50 in assay [2] and in assay [3] was under 20 nM each time.

For the origin of these results see patent US11530222B2, “Substituted pyrrolopyrimidine and pyrazolopyrimidine as Bruton's tyrosine kinase (BTK) degraders” (ACCUTAR BIOTECHNOLOGY INC., priority 2021, dated 2022).
